Test results published in patent publication US20060035873A1, “Methods for inducing apolipoprotein e secretion” (priority 2000, published 2006).
Where two headings read alike, the source gives them in different places.

Assays:
LXRα = target: T1, LXRα (Homo sapiens, UniProt Q13133); details: see Janowsky et al. PNAS 1999; cited from earlier work
T1 sequence (Q13133 1-447): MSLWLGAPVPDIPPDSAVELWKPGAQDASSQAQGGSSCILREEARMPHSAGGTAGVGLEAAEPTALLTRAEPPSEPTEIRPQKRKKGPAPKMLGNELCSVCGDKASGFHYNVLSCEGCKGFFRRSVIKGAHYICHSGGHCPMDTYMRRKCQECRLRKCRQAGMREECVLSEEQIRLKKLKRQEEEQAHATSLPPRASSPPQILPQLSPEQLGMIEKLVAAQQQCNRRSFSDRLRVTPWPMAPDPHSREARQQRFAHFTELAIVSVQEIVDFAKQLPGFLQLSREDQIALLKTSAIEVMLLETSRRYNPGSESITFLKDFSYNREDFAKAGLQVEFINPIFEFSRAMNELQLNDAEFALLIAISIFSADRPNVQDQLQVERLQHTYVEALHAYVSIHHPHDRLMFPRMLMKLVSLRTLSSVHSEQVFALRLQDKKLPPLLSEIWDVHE

[1] = tested on: ApoE secretion by THP-1 cells; assay: Secretion of ApoE by THP-1 cells, ApoE determined by ELISA; type: cell-based, human; details: for Change in Apo E production: 72 hours incubation
Protocol: The activities of the compounds can be determined an in vitro assay which comprises testing the effects of FXR and LXRα activators on the secretion of ApoE in the THP-1 cell line.
The THP1 cell line was derived from the peripheral blood of a child with acute monocytic leukemia. […] Fresh medium was added to maintain cell density between 2 and 9×10^5 cells/ml. Once a week, new cultures were initiated by inoculating 10 ml of medium with 2×10^6 cells in a 75 cm^2 plate. The plates were kept at 37° C. in a 5% CO2 atmosphere. For screening, cells were seeded in 24-well plates at the density of 2×10^5 cells per well. Phorbol-12-myristat-13-acetate (PMA) was added at 0 and 2.5 nM to initiate THP1 differentiation into adherent macrophage-like cells. Vehicles, reference compounds and test compounds were added simultaneously at concentrations varying from 1 to 50 μM and incubated for 72 hours. The culture medium was then recovered, centrifuged at 300 g for 5 min to remove any unattached cell and stored at −20° C. before analysis.
96 well-microtiter plates were coated by incubating with a 5% gelatine solution from porcine skin, in 50 mM carbonate-bicarbonate buffer, pH9.6 at the concentration of 200 μl/well, for 2 hours at 37° C. The coating solution was carefully removed and the test compound was added (100 μl/well) at the appropriate dilution. Dilutions of a human ApoE standard (ICN BiomedicalsInc, USA) were simultaneously assayed. Test compounds and antibodies were diluted in the following buffer solution: PBS, 1% BSA, 0.1% Tween 20, pH 7.4. Test compounds were incubated for 1 hour at 37° C., and the wells were washed 3 times with 200 μl of buffer solution. One hundred microliters per well of the primary antibody (goat anti-human ApoE IgG) diluted 10000 fold was incubated for 1 hour at 37° C. under continuous shaking. After the third wash, 100 μl/well of the secondary antibody (anti-goat-IgG peroxidase conjugate) diluted 5000 fold was incubated for 1 hour at 37° C. with continuous shaking. Wells were washed 5 times and 100 μl/well of substrate (ortho-phenylenediamine dihydrochloride) was incubated for the appropriate time at room temperature in the dark with continuous shaking. The reaction was stopped by adding 50 μl/well of 3M sulfuric acid and incubating for 1 min at room temperature.

FXR = details: cited from earlier work

CC(C)CC[C@@H](O)[C@@H](C)[C@H]1CC[C@H]2[C@@H]3CC=C4C[C@@H](O)CC[C@]4(C)[C@H]3CC[C@]12C [22(R)-hydroxycholesterol, 5-cholestene-3β,22[R]-diol]
Interaction with Nuclear receptor (LXRα): LXRα activator ^3) | ApoE secretion at submicromolar concentrations ([1]; submicromolar concentrations): significant increases in ApoE secretion

CC(C)CC[C@H](O)[C@@H](C)[C@H]1CC[C@H]2[C@@H]3CC=C4C[C@@H](O)CC[C@]4(C)[C@H]3CC[C@]12C [22(S)-hydroxycholesterol, 5-cholestene-3β,22[S]-diol]
Interaction with Nuclear receptor (LXRα): Less potent activator

C[C@H](CCC(=O)O)[C@H]1CC[C@H]2[C@@H]3[C@H](O)C[C@@H]4C[C@H](O)CC[C@]4(C)[C@H]3CC[C@]12C [Chenodeoxycholic acid, 3α,7α-dihydroxy-5β-cholanic acid]
Change in Apo E production ([1]; compound 50 μM): +138% | Change in Apo E production ([1]; compound 50 μM, listed as chenodeoxycholic acid): 138%

C[C@H](CCC(=O)O)[C@H]1CC[C@H]2[C@@H]3[C@H](O)C[C@@H]4C[C@H](O)CC[C@]4(C)[C@H]3C[C@H](O)[C@]12C [Cholic acid, 3α,7α,12α-trihydroxy-5β-cholan-24-oic acid]
Change in Apo E production ([1]; compound 50 μM): +6% | Change in Apo E production ([1]; compound 50 μM, listed as cholic acid): did not change ApoE secretion | Interaction with Nuclear receptor (FXR; see Makishima et al., Parks et al., Wang et al. 1999): Does not activate

CC(C)=CCC/C(C)=C/CC/C(C)=C/CC/C(C)=C/CO [Geranylgeraniol, All trans-3,7,11,15-tetramethyl-2,6,10,14-hexadecatetraen-1-ol]
Change in Apo E production ([1]; compound 20 μM): +36% | Change in Apo E production ([1]; compound 20 μM, listed as geranylgeraniol): 36% | Interaction with Nuclear receptor (FXR; see Forman et al. Cell 1995): Does not activate
